These results are taken from patent publication US10821115B2, “Compounds that inhibit Mcl-1 protein” (priority 2017, dated 2020).

Molecules are shown by their SMILES. Where two headings read alike, the source gives them in different places. Bounds are passed on as bounds.

The subject of experiment [1] is human multiple myeloma cell line, OPM-2. Kind of experiment: Cell viability assay (OPM-2 10 FBS), CellTiter-Glo. In kind it is cell-based. Put shortly: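 3000 cells/well, RPMI 1640 + 10% FBS; serial compound dilutions, 16 h, 37 °C/5% CO2.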
(Cellular ATP, detected with luciferase, serves as a proxy for viable cell number.)

Experiment [2] deals with recombinant human Mcl-1 (residues 171-327) / Bim interaction (Homo sapiens (Human), UniProt Q07820). The experiment is described as follows: biochemical. The conditions noted are these: read-out: Mcl-1 HTRF IC50. It counts as binding.
Sequence of recombinant human Mcl-1 (residues 171-327) / Bim interaction (Q07820 171-327): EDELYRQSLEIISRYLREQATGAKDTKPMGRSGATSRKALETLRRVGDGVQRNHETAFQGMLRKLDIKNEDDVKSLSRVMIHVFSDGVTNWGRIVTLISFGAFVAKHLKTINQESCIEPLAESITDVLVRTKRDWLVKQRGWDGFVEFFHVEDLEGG
Setting [3] is: read-out: OPM-2 10% FBS IC50 IP, OPM-2 cells, 10% FBS, 16 h, CellTiter-Glo.
Setting [4] is: TR-FRET, Mcl-1(171-327) / biotin-Bim (51-76).
The mark [5] stands for this setting: read-out: OPM-2 10% FBS IC50 IP, OPM-2 cells, 10% FBS, 16 h incubation.
The mark [6] stands for this setting: 0.1 nM Mcl-1(171-327), 0.05 nM biotin-Bim (51-76).
The mark [7] stands for this setting: Homo sapiens, OPM-2, 16 h, read-out: OPM-2 10% FBS IC50 IP, OPM-2 cells, 10% FBS, 16 h, CellTiter-Glo.
[8] abbreviates: Homo sapiens, OPM-2, 16 h, read-out: OPM-2 10% FBS IC50 IP, OPM-2 cells, 10% FBS, 16 h incubation.

With `CO[C@@]1(CO)CCC[C@H](C)[C@@H](C)S(=O)(=O)NC(=O)c2ccc3c(c2)N(C[C@@H]2CC[C@H]21)C[C@@]1(CCCc2cc(Cl)ccc21)CO3` (stereo in doubt) [Example 100184, (1S,3′R,6′R,7′S,11′S,12′R)-6-chloro-7′-(hydroxymethyl)-7′-methoxy-11′,12′-dimethyl-3,4-dihydro-2H,15′H-spiro[naphthalene-1,22′-[20]oxa[13]thia[1,14]diazatetracyclo [14.7.2.0~3,6~.0~19,24~]pentacosa[16,18,24]rien]-15′-one 13′,13′-dioxide], the IC50 – broadly, the concentration that gives 50% inhibition – in experiment [1] (setting [3]) came to 179 nM; in experiment [2] (setting [4]) it was 0.717 nM.
For the molecule `CO[C@@]1(CN2CCN3CCN(C(=O)CCS(=O)(=O)c4ccccc4)C[C@@H]3C2)/C=C/C[C@H](C)[C@@H](C)S(=O)(=O)NC(=O)c2ccc3c(c2)N(C[C@@H]2CC[C@H]21)C[C@@]1(CCCc2cc(Cl)ccc21)CO3` (single isomer, unassigned) [Example 294], the concentration for half-maximal inhibition (IC50) in experiment [1] (setting [5]) was determined as 687 nM; in experiment [2] (setting [6]), 0.66 nM.
Take `Cc1nc([C@]2(O)/C=C/C[C@H](C)[C@@H](C)S(=O)(=O)NC(=O)c3ccc4c(c3)N(C[C@@H]3CC[C@H]32)C[C@@]2(CCCc3cc(Cl)ccc32)CO4)cs1` [Example 100516, (1S,3′R,6′R,7′S,8′E,11′S,12′R)-6-chloro-7′-hydroxy-11′,12′-dimethyl-7′-(2-methyl-1,3-thiazol-4-yl)-3,4-dihydro-2H,15′H-spiro[naphthalene-1,22′-[20]oxa[13]thia[1,14]diazatetracyclo [14.7.2.0~3,6~.0~19,24~]pentacosa[8,16,18,24]tetraen]-15′-one 13′,13′-dioxide]: the IC50 in experiment [1] (setting [7]) is 1900 nM; in experiment [2] (setting [4]) it was 3.36 nM.
For `C[C@@H]1[C@@H](C)CCC[C@@](O)(CN)[C@@H]2CC[C@H]2CN2C[C@@]3(CCCc4cc(Cl)ccc43)COc3ccc(cc32)C(=O)NS1(=O)=O` (single isomer, unassigned) [Example 507], the results for the IC50 in experiment [1] (setting [5]) and in experiment [2] (setting [6]) were greater than 33300 nM and 13.7 nM, respectively.
For the molecule `COCC(COC)N1CCN(C[C@]2(OC)/C=C/C[C@H](C)[C@@H](COC)S(=O)(=O)NC(=O)c3ccc4c(c3)N(C[C@@H]3CC[C@H]32)C[C@@]2(CCCc3cc(Cl)ccc32)CO4)CC1` [Example 172, (1S,3′R,6′R,7′S,8′E,11′S,12′S)-6-chloro-7′-methoxy-7′-((4-(2-methoxy-1-(methoxymethyl)ethyl)-1-piperazinyl)methyl)-12′-(methoxymethyl)-11′-methyl-3,4-dihydro-2H,15′H-spiro[naphthalene-1,22′-[20]oxa[13]thia[1,14]diazatetracyclo [14.7.2.0~3,6~.0~19,24~]pentacosa[8,16,18,24]tetraen]-15′-one 13′,13′-dioxide], the values for the IC50 in experiment [1] (setting [8]) and in experiment [2] (setting [6]) were 55 nM and 0.137 nM, respectively.
Regarding `C[C@@H]1[C@@H](C)CCC[C@](O)(CC(=O)N(C)C(C)(C)C)[C@@H]2CC[C@H]2CN2C[C@@]3(CCCc4cc(Cl)ccc43)COc3ccc(cc32)C(=O)NS1(=O)=O` (single isomer, unassigned) [Example 100143], the IC50 in experiment [1] (setting [3]) turned out to be 3270 nM; in experiment [2] (setting [4]), 1.87 nM.
Consider `C[C@@H]1[C@@H](C)CCC[C@](C=O)(CN2CCOCC2)[C@@H]2CC[C@H]2CN2C[C@@]3(CCCc4cc(Cl)ccc43)COc3ccc(cc32)C(=O)NS1(=O)=O` [Example 100337, (1S,3′R,6′R,7′R,11′S,12′R)-6-chloro-11′,12′-dimethyl-7′-(4-morpholinylmethyl)-15′-oxo-3,4-dihydro-2H-spiro[naphthalene-1,22′-[20]oxa[13]thia[1,14]diazatetracyclo [14.7.2.0~3,6~.0~19,24~]pentacosa[16,18,24]triene]-7′-carbaldehyde 13′,13′-dioxide], for which the values for the IC50 in experiment [1] (setting [7]) and in experiment [2] were 2410 nM and 1.61 nM, respectively.
`C#C[C@]1(O)/C=C/C[C@H](C)[C@@H](C)S(=O)(=O)NC(=O)c2ccc3c(c2)N(C[C@@H]2CC[C@H]21)C[C@@]1(CCCc2cc(Cl)ccc21)CO3` [Example 100244, (1S,3′R,6′R,7′S,8′E,11′S,12′R)-6-chloro-7′-ethynyl-7′-hydroxy-11′,12′-dimethyl-3,4-dihydro-2H,15′H-spiro[naphthalene-1,22′-[20]oxa[13]thia[1,14]diazatetracyclo [14.7.2.0~3,6~.0~19,24~]pentacosa[8,16,18,24]tetraen]-15′-one 13′,13′-dioxide]: the IC50 in experiment [1] (setting [7]) was 49 nM; in experiment [2] (setting [4]), 0.182 nM.
As to `CO[C@@]1(c2nccn2C)/C=C/C[C@H](C)[C@@H](C)S(=O)(=O)NC(=O)c2ccc3c(c2)N(C[C@@H]2CC[C@H]21)C[C@@]1(CCCc2cc(Cl)ccc21)CO3` (single isomer, unassigned) [Example 100556], the IC50 in experiment [1] (setting [7]) is 734 nM; in experiment [2] (setting [4]), 0.113 nM.
With `CO[C@]1(CN2CCN(C(C)C)[C@H](C)C2)/C=C/C[C@H](C)[C@@H](C)S(=O)(=O)NC(=O)c2ccc3c(c2)N(C[C@@H]2CC[C@H]21)C[C@@]1(CCCc2cc(Cl)ccc21)CO3` [Example 8, (1 S,3′R,6′R,7′R,8′E, 11′S,12′R)-6-CHLORO-7′-METHOXY-11′,12′-DIMETHYL-7′-(((3R)-3-METHYL-4-(1-METHYLETHYL)-1-PIPERAZINYL)METHYL)-3,4-DIHYDRO-2H, 15′H-SPIRO [NAPHTHALENE-1,22′-[20]OXA[13]THIA[1,14]DIAZATETRACYCLO[14.7.2.0-3,6˜.0˜19,24˜]PENT ACOSA[8,16,18,24]TETRAEN]-15′-ONE 13′,13′-DIOXIDE], the IC50 in experiment [1] (setting [5]) was 25 nM; in experiment [2] (setting [6]), 0.053 nM.
For `C[C@@H]1[C@@H](C)C/C=C/[C@](O)(Cc2ccnc(C#N)c2)[C@@H]2CC[C@H]2CN2C[C@@]3(CCCc4cc(Cl)ccc43)COc3ccc(cc32)C(=O)NS1(=O)=O` [Example 100188, 4-(((1S,3′R,6′R,7′R,8′E,11′S,12′R)-6-chloro-7′-hydroxy-11′,12′-dimethyl-13′,13′-dioxido-15′-oxo-3,4-dihydro-2H-spiro[naphthalene-1,22′-[20]oxa[13]thia[1,14]diazatetracyclo [14.7.2.0~3,6~.0~19,24~]pentacosa[8,16,18,24]tetraen]-7′-yl)methyl)-2-pyridinecarbonitrile], the IC50 is 735 nM in experiment [1] (setting [3]) and 0.877 nM in experiment [2] (setting [4]).
With `COCCN(C)C1CN(C[C@@]2(OC)/C=C/C[C@H](C)[C@@H](C)S(=O)(=O)NC(=O)c3ccc4c(c3)N(C[C@@H]3CC[C@H]32)C[C@@]2(CCCc3cc(Cl)ccc32)CO4)C1` [Example 94, (1S,3′R,6′R,7′R,8′E,11′S,12′R)-6-chloro-7′-methoxy-7′-((3-((2-methoxyethyl)(methyl)amino)-1-azetidinyl)methyl)-11′,12′-dimethyl-3,4-dihydro-2H,15′H-spiro[naphthalene-1,22′-[20]oxa[13]thia[1,14]diazatetracyclo [14.7.2.0~3,6~.0~19,24~]pentacosa[8,16,18,24]tetraen]-15′-one 13′,13′-dioxide], the IC50 was 140 nM in experiment [1] (setting [8]) and 0.191 nM in experiment [2] (setting [6]).
In the case of `CC[C@]1(O)CCC[C@H](C)[C@@H](C)S(=O)(=O)NC(=O)c2ccc3c(c2)N(C[C@@H]2CC[C@H]21)C[C@@]1(CCCc2cc(Cl)ccc21)CO3` [Example 100076, (1S,3′R,6′R,7′S,11′S,12′R)-6-chloro-7′-ethyl-7′-hydroxy-11′,12′-dimethyl-3,4-dihydro-2H,15′H-spiro[naphthalene-1,22′-[20]oxa[13]thia[1,14]diazatetracyclo [14.7.2.0~3,6~.0~19,24~]pentacosa[16,18,24]trien]-15′-one 13′,13′-dioxide], the figures for the IC50 in experiment [1] (setting [7]) and in experiment [2] (setting [4]) were 2670 nM and 9.66 nM, respectively.
In the same order, the values of `C=CC[C@]1(OC)/C=C/C[C@H](C)[C@@H](C)S(=O)(=O)NC(=O)c2ccc3c(c2)N(C[C@@H]2CC[C@H]21)C[C@@]1(CCCc2cc(Cl)ccc21)CO3` [Example 100397, (1S,3′R,6′R,7′S,8′E,11′S,12′R)-6-chloro-7′-methoxy-11′,12′-dimethyl-7′-(2-propen-1-yl)-3,4-dihydro-2H,15′H-spiro[naphthalene-1,22′-[20]oxa[13]thia[1,14]diazatetracyclo [14.7.2.0~3,6~.0~19,24~]pentacosa[8,16,18,24]tetraen]-15′-one 13′,13′-dioxide] are 404 nM and 0.198 nM.
Turning to `CO[C@@]1(CN2CCN(c3cccnc3)CC2)/C=C/C[C@H](C)[C@@H](C)S(=O)(=O)NC(=O)c2ccc3c(c2)N(C[C@@H]2CC[C@H]21)C[C@@]1(CCCc2cc(Cl)ccc21)CO3` [Example 253, (1S,3′R,6′R,7′S,8′E,11′S,12′R)-6-chloro-7′-methoxy-11′,12′-dimethyl-7′-((4-(3-pyridinyl)-1-piperazinyl)methyl)-3,4-dihydro-2H,15′H-spiro[naphthalene-1,22′-[20]oxa[13]thia[1,14]diazatetracyclo [14.7.2.0~3,6~.0~19,24~]pentacosa[8,16,18,24]tetraen]-15′-one 13′,13′-dioxide], the IC50 in experiment [1] (setting [8]) was 887 nM; in experiment [2] (setting [6]), 0.804 nM.
With `CO[C@@]1(c2cncc(CN(C)C)c2)/C=C/C[C@H](C)[C@@H](C)S(=O)(=O)NC(=O)c2ccc3c(c2)N(C[C@@H]2CC[C@H]21)C[C@@]1(CCCc2cc(Cl)ccc21)CO3` [Example 100554, (1S,3′R,6′R,7′S,8′E,11′S,12′R)-6-chloro-7′-(5-((dimethylamino)methyl)-3-pyridinyl)-7′-methoxy-11′,12′-dimethyl-3,4-dihydro-2H,15′H-spiro[naphthalene-1,22′-[20]oxa[13]thia[1,14]diazatetracyclo [14.7.2.0~3,6~.0~19,24~]pentacosa[8,16,18,24]tetraen]-15′-one 13′,13′-dioxide], the IC50 was determined as 519 nM in experiment [1] (setting [7]) and 0.231 nM in experiment [2] (setting [4]).
